Data from US5126483A, “1-phenylalkyl-3-phenylurea derivatives” (Mitsubishi Kasei Corporation, priority 1989, dated 1992).

How the values were obtained:
[1] = target: acyl-CoA: cholesterol acyltransferase (ACAT); assay: ACAT inhibitory action: cholesteryl-[14C] oleate formation in hamster microsomes; type: biochemical; settings: radio-labelled oleoyl coenzyme A (14C)
Method: The ACAT inhibitory action of the compounds according to the present invention was measured as follows:
ACAT activity in the hamster microsomes was determined by measuring the rate of radio-active cholesteryl-[^14 C] oleate formation from cholesterol and radio-labelled oleoyl coenzyme A (^14 C) with or without test compound.
Calculations of IC50 value were made using data of the percent inhibition at each compound concentration.

[2] = tested on: cholesterol level in serum; assay: Effect of reducing a lipid level in blood: serum cholesterol in hamsters fed 1% cholesterol / 0.5% cholic acid diet; type: in vivo, golden Syrian hamster; settings: once a day for 5 days, relative to control group
Method: The effect of reducing a lipid level in blood by the action of the compounds according to the present invention was determined as follows:
Male golden Syrian hamsters weighing from 80 to 100 g were randomly divided into groups. The hamsters were first fed standard laboratory diets (solid feed MF-1 for mouse/rat/hamster, manufactured by Oriental Yeast Industries, KK) for 3 days. Then, they were fed the experimental diet containing 1% cholesterol and 0.5% cholic acid (manufactured by Oriental Yeast Industries, KK), ad libitum. At the same time, the compounds of the invention formulated in a shown dose (0.1-10 mg/10 ml water/kg) were administrated to the animals orally once a day at a determined time for 5 days. Water was administrated orally to the hamsters of control group in an amount of 10 ml per 1 kg of body weight. After five days of administrating the compounds, the animals were anesthetized with Pentobarbital Na (Nembutal injection, manufactured by Dainabbot) and three hours after the final administration of the test compound, a blood sample was taken from abdominal cava. The serum was separated from the sample by centrifuging.
The cholesterol level in the serum was determined by using a blood cholesterol measuring kit, Determina-TC5 manufactured by Kyowa Medix Co. The results are represented by percent inhibition (%) of cholesterol level in serum relative to that of the control group, and shown in the following Table 2.

[3] = Mesocricetus auratus, po, 120 h, read-out: Percent inhibition of cholesterol in serum
[4] = Mesocricetus auratus, po, 120 h, 0.1 mg/kg, read-out: Percent inhibition of cholesterol in serum

| SMILES | inhibition in vivo at 1 mg/kg [2, 3] | also measured |
| --- | --- | --- |
| CCCCC(CNC(=O)Nc1c(C(C)C)cccc1C(C)C)c1cccc(Cl)c1 (stereo not drawn) [Example 40] | 38% | IC50 [1]: 0.031 µM |
| CCCCCC(CNC(=O)Nc1c(C(C)C)cccc1C(C)C)c1cccc(OC)c1OC (single isomer, unassigned; (-)) [Example 51, (-)-1-(2-(2,3-dimethoxyphenyl)heptyl)-3-(2,6-diisopropylpheyl)urea] | – | Percent inhibition of cholesterol in serum ([2]; 0.1 mg/kg, oral): 25% |
| CCCCCC(CNC(=O)Nc1c(C(C)C)cccc1C(C)C)c1cccc(OC)c1 (stereo not drawn) [Example 29] | 36% | – |
| CCCCCC(CNC(=O)Nc1c(C(C)C)cccc1C(C)C)c1cccc(C)c1 (stereo not drawn) [Example 12] | 43% | IC50 [1]: 0.026 µM |
| CCCCCC(CNC(=O)Nc1c(C(C)C)cccc1C(C)C)c1cccc(OC)c1OC (stereo not drawn) [Example 33] | – | IC50 [1]: 0.016 µM; inhibition in vivo at 0.1 mg/kg [2, 4]: 24% |
| CCCCC(CNC(=O)Nc1c(C(C)C)cccc1C(C)C)c1cccc(CC)c1 (stereo not drawn) [Example 15] | 36% | – |
| CCCCCCC(CNC(=O)Nc1c(C(C)C)cccc1C(C)C)c1ccc(OC)c(OC)c1 (stereo not drawn) [Example 36] | 26% | – |
| CCCCC(CNC(=O)Nc1c(C(C)C)cccc1C(C)C)c1ccc(C)cc1 (stereo not drawn) [Example 19] | 36% | – |
| CCCCC(CNC(=O)Nc1c(C(C)C)cccc1C(C)C)c1ccc(C)c(C)c1C (stereo not drawn) [Example 24] | 39% | – |
| CCCCC(CNC(=O)Nc1c(C(C)C)cccc1C(C)C)c1ccccc1C (stereo not drawn) [Example 9] | 19% | IC50 [1]: 0.0049 µM |
| CC(C)c1cccc(C(C)C)c1NC(=O)NCC(c1ccccc1)C(C)(C)C (stereo not drawn) [compound 1, 1-(3,3-dimethyl-2-phenylbutyl)-3-(2,6-diisopropyl-phenyl)urea, reference compound] | – | inhibition in vivo at 5 mg/kg ([2]; Mesocricetus auratus, po, 120 h, 5 mg/kg, read-out: Percent inhibition of cholesterol in serum): 5% |
| CCCCC(CNC(=O)Nc1c(C(C)C)cccc1C(C)C)c1cccc(OC)c1OC (stereo not drawn) [Example 32] | 43% | – |
| CCCCC(CNC(=O)Nc1c(C(C)C)cccc1C(C)C)Cc1ccc(Cl)cc1 (stereo not drawn) [Example 49] | – | inhibition in vivo at 10 mg/kg ([2]; Mesocricetus auratus, po, 120 h, 10 mg/kg (footnote 2), read-out: Percent inhibition of cholesterol in serum): 33% |
| CCCCCC(CNC(=O)Nc1c(C(C)C)cccc1C(C)C)c1cccc(OC)c1OC (single isomer, unassigned; (+)) [Example 50, (+)-1-(2-(2,3-dimethoxyphenyl)heptyl)-3-(2,6-diisopropylpehyl)urea] | – | inhibition in vivo at 0.1 mg/kg [2, 4]: 18% |
